Experiment: Degradation study of 2-chloro-6-trichloromethylpyridine/NBPT in DMSO at 50° C. by LC
Format: physicochemical
Description: A degradation study was performed using 2-chloro-6-trichloromethylpyridine/nBPT in DMSO
2-chloro-6-trichloromethylpyridine/NBPT=1/1 (w/w) mixture was dissolved in DMSO. LC's were done to analyze the content decrease along with time. All samples were sealed and protected under N2. All sample were stored 50° C.
C18 column, 255 nm. Retention time: 40 min. temperature: 30° C. 15 μL injection. Peak area percentage were calculated to analyze the concentration.

| Compound | content of active, LC peak area percentage (week 1) [peak area percentage] | content of active, LC peak area percentage (week 2) [peak area percentage] | content of active, LC peak area percentage (week 3) [peak area percentage] | content of active, LC peak area percentage (week 4) [peak area percentage] | content of active, LC peak area percentage (week 6) [peak area percentage] | content of active, LC peak area percentage (week 7) [peak area percentage] | content of active, LC peak area percentage (week 8) [peak area percentage] | content of active, LC peak area percentage (week 9) [peak area percentage] | content of active, LC peak area percentage (week 10) [peak area percentage] | content of active, LC peak area percentage (week 11) [peak area percentage] | content of active, LC peak area percentage (week 12) [peak area percentage] | content of active, LC peak area percentage (week 13) [peak area percentage] | content of active, LC peak area percentage (week 14) [peak area percentage] | content of active, LC peak area percentage (week 15) [peak area percentage] | content of active, LC peak area percentage (week 16) [peak area percentage] | content of active, LC peak area percentage (week 17) [peak area percentage] | content of active, LC peak area percentage (week 18) [peak area percentage] |
| --- | --- | --- | --- | --- | --- | --- | --- | --- | --- | --- | --- | --- | --- | --- | --- | --- | --- |
| CCCCNP(N)(N)=S [n-butylthiophosphoric triamide] | 100 | 99.6 | 98 | 97.6 | 96.5 | 95.3 | 94.7 | 93 | 92.2 | 92.1 | 91.7 | 91 | 90.88 | 90.01 | 99.55 | 89.06 | 88.6 |
| Clc1cccc(C(Cl)(Cl)Cl)n1 [2-chloro-6-trichloromethylpyridine] | 100 | 99 | 99.4 | 98.3 | 95.3 | 93.2 | 92.3 | 90.8 | 88 | 86.7 | 86.4 | 85 | 84.33 | 83.56 | 81.45 | 81 | 80.09 |

Source: patent US9637420B2, “Increased longevity of the nitrogen content of soil through improved liquid delivery formulations of urease inhibitors and/or nitrification inhibitors designed for urea and manure based fertilizers” (priority 2013, dated 2017)
